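Assay format: 96-well plates, 48-hour exposure. GI50 is the concentration that inhibits growth by half.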 Calls of active or inactive are those of the source. Cut-off read from the data, not from the text of the source: active = GI50 up to about 1.1 µM and inactive = higher.
Key:
Assay in all cases: DTP human tumour cell line panel, 48 h
OVCAR-4 = system: OVCAR-4
BT-549 = system: BT-549
RPMI-8226 = system: RPMI-8226
K562 = system: K562
UACC-257 = system: UACC-257
LOX IMVI = system: LOX IMVI
SNB-75 = system: SNB-75
U-251 = system: U-251
MDA-N = system: MDA-N
EKVX = system: EKVX
COLO 205 = system: COLO 205
UO-31 = system: UO-31
HL-60 = system: HL-60
OVCAR-8 = system: OVCAR-8
NCI-H23 = system: NCI-H23
TK-10 = system: TK-10
SF-295 = system: SF-295
OVCAR-3 = system: OVCAR-3
SF-268 = system: SF-268
HCC 2998 = system: HCC 2998

SMILES	GI50 (OVCAR-4)	GI50 (BT-549)	GI50 (RPMI-8226)	GI50 (K562)	GI50 (UACC-257)	GI50 (LOX IMVI)	GI50 (SNB-75)	GI50 (U-251)	GI50 (MDA-N)	GI50 (EKVX)	GI50 (COLO 205)	GI50 (UO-31)	GI50 (HL-60)	GI50 (OVCAR-8)	GI50 (NCI-H23)	GI50 (TK-10)	GI50 (SF-295)	GI50 (OVCAR-3)	GI50 (SF-268)	GI50 (HCC 2998)
CC(=O)c1ccc2c3c1[C@@H]1O[C@@H]1c1cccc(c1-3)[C@@H]1O[C@H]21	13.6 µM (inactive)	15.1 µM (inactive)	5.05 µM (inactive)	4.47 µM (inactive)	16.9 µM (inactive)	2.07 µM (inactive)	13.5 µM (inactive)	6.62 µM (inactive)	13.5 µM (inactive)	16.4 µM (inactive)	9.79 µM (inactive)	6.84 µM (inactive)	9.91 µM (inactive)	3.94 µM (inactive)	7 µM (inactive)	20.7 µM (inactive)	15 µM (inactive)	13.5 µM (inactive)	6.62 µM (inactive)	–
NC(Cc1ccccc1)C(=O)N[C@H]1c2ccsc2/C(=N/O)[C@H]1O (stereo partly drawn)	> 100 µM (inactive)	> 100 µM (inactive)	–	> 100 µM (inactive)	> 100 µM (inactive)	> 100 µM (inactive)	–	> 100 µM (inactive)	> 100 µM (inactive)	> 100 µM (inactive)	> 100 µM (inactive)	25.6 µM (inactive)	> 100 µM (inactive)	> 100 µM (inactive)	> 100 µM (inactive)	> 100 µM (inactive)	> 100 µM (inactive)	> 100 µM (inactive)	–	> 100 µM (inactive)
O=C(OCC(OC(=O)c1ccccc1)C(OC(=O)c1ccccc1)C(OC(=O)c1ccccc1)c1cnn(-c2ccccc2)n1)c1ccccc1 (stereo not drawn)	> 100 µM (inactive)	> 100 µM (inactive)	> 100 µM (inactive)	> 100 µM (inactive)	> 100 µM (inactive)	> 100 µM (inactive)	–	–	> 100 µM (inactive)	> 100 µM (inactive)	> 100 µM (inactive)	> 100 µM (inactive)	> 100 µM (inactive)	> 100 µM (inactive)	> 100 µM (inactive)	> 100 µM (inactive)	> 100 µM (inactive)	> 100 µM (inactive)	> 100 µM (inactive)	> 100 µM (inactive)
CC(=O)Oc1ccc(-c2nnc(-c3ccc(OC(C)=O)cc3)nn2)cc1	> 100 µM (inactive)	> 100 µM (inactive)	> 100 µM (inactive)	55.5 µM (inactive)	> 100 µM (inactive)	> 100 µM (inactive)	> 100 µM (inactive)	> 100 µM (inactive)	> 100 µM (inactive)	70.5 µM (inactive)	> 100 µM (inactive)	64 µM (inactive)	29.8 µM (inactive)	> 100 µM (inactive)	> 100 µM (inactive)	> 100 µM (inactive)	> 100 µM (inactive)	> 100 µM (inactive)	> 100 µM (inactive)	–
CC(C)(Oc1ccc(C2C[C@H]2Cl)cc1)C(=O)O (stereo partly drawn)	> 100 µM (inactive)	> 100 µM (inactive)	> 100 µM (inactive)	> 100 µM (inactive)	> 100 µM (inactive)	> 100 µM (inactive)	> 100 µM (inactive)	> 100 µM (inactive)	> 100 µM (inactive)	> 100 µM (inactive)	> 100 µM (inactive)	–	> 100 µM (inactive)	–	–	> 100 µM (inactive)	> 100 µM (inactive)	> 100 µM (inactive)	–	–
C=CCN1C[C@H](C)N([C@H](c2ccc(C(=O)N(CC)CC)cc2)c2cccc(OC)c2)C[C@H]1C [SNC-80]	73.8 µM (inactive)	41.1 µM (inactive)	29.1 µM (inactive)	–	19.5 µM (inactive)	–	–	44.9 µM (inactive)	53.1 µM (inactive)	> 100 µM (inactive)	16.8 µM (inactive)	62.2 µM (inactive)	24.8 µM (inactive)	> 100 µM (inactive)	32.7 µM (inactive)	48 µM (inactive)	19.9 µM (inactive)	18.3 µM (inactive)	86.5 µM (inactive)	–
CC(=O)/C=C1\Nc2ccccc2N\C1=C/C(C)=O	19 µM (inactive)	35 µM (inactive)	19.5 µM (inactive)	26.6 µM (inactive)	20.3 µM (inactive)	24.5 µM (inactive)	26.9 µM (inactive)	23.8 µM (inactive)	29.9 µM (inactive)	27.5 µM (inactive)	23.2 µM (inactive)	36.6 µM (inactive)	23.9 µM (inactive)	24.7 µM (inactive)	31.2 µM (inactive)	19.4 µM (inactive)	26.5 µM (inactive)	17.5 µM (inactive)	23.5 µM (inactive)	–
Cc1ccsc1/C=N/NC1=NCCN1	> 100 µM (inactive)	> 100 µM (inactive)	> 100 µM (inactive)	> 100 µM (inactive)	> 100 µM (inactive)	> 100 µM (inactive)	> 100 µM (inactive)	> 100 µM (inactive)	> 100 µM (inactive)	> 100 µM (inactive)	> 100 µM (inactive)	> 100 µM (inactive)	–	> 100 µM (inactive)	> 100 µM (inactive)	> 100 µM (inactive)	55.3 µM (inactive)	> 100 µM (inactive)	> 100 µM (inactive)	> 100 µM (inactive)
Nc1c(-c2nc3ccccc3o2)sc(=S)n1-c1ccc(Cl)cc1	11 µM (inactive)	31 µM (inactive)	82.6 µM (inactive)	0.474 µM (active)	18 µM (inactive)	–	–	15.6 µM (inactive)	21.4 µM (inactive)	12.6 µM (inactive)	17.1 µM (inactive)	29.4 µM (inactive)	> 100 µM (inactive)	12.1 µM (inactive)	13.9 µM (inactive)	27.9 µM (inactive)	10.6 µM (inactive)	15.9 µM (inactive)	12.9 µM (inactive)	1.27 µM (inactive)
Cc1c2ccccc2c(CSC(=N)N)c2ccccc12	0.174 µM (active)	0.902 µM (active)	0.0841 µM (active)	0.2 µM (active)	0.187 µM (active)	0.202 µM (active)	0.178 µM (active)	0.176 µM (active)	0.175 µM (active)	0.304 µM (active)	0.14 µM (active)	0.181 µM (active)	0.111 µM (active)	0.199 µM (active)	0.106 µM (active)	0.222 µM (active)	0.271 µM (active)	0.264 µM (active)	0.0738 µM (active)	–
CC(C)N(Cc1ccccc1)S(=O)(=O)c1nc(C(C)(C)C)n[nH]1	> 100 µM (inactive)	> 100 µM (inactive)	> 100 µM (inactive)	> 100 µM (inactive)	44.9 µM (inactive)	> 100 µM (inactive)	> 100 µM (inactive)	> 100 µM (inactive)	> 100 µM (inactive)	> 100 µM (inactive)	> 100 µM (inactive)	> 100 µM (inactive)	46.1 µM (inactive)	> 100 µM (inactive)	> 100 µM (inactive)	> 100 µM (inactive)	> 100 µM (inactive)	> 100 µM (inactive)	> 100 µM (inactive)	–
